Assay results from US12667824B2, “Carbon dioxide absorbent” (MITSUBISHI GAS CHEMICAL COMPANY, INC., priority 2020, dated 2026).
Like-named read-outs stand apart in the source and are kept apart here.

Experiments:
[1] = Amine value of amine compound (JIS K7237-1995 titration); type: physicochemical; conditions: 0.1 N perchloric acid-acetic acid titration
Experimental: The amine value was measured by the following measurement method in accordance with JIS K7237-1995. • (1) Dissolving 0.1 g of the amine compound in 20 mL of the acetic acid. • (2) Calculating the amine value by titrating the solution obtained in the above (1) with the 0.1 N perchloric acid-acetic acid solution using the automatic potentiometric titrator (AT-610 produced by Kyoto Electronics Manufacturing Co., Ltd.).

[2] = Maximum endothermic temperature of amine compound (DSC, volatilization); type: physicochemical; conditions: DSC 23 to 350° C., 10° C./min, nitrogen; volatilization of the amine compound
Experimental: DSC measurements were performed on the amine compounds used in Examples and Comparative Examples to measure the maximum endothermic temperature of the amine compounds as follows. First, a differential scanning calorimetry was performed on the amine compounds using a differential thermogravimetric analyzer (Product Name: DTG-60 produced by Shimadzu Corporation) under conditions of 23 to 350° C. of a measurement temperature range, 10° C./min of a heating rate, and a nitrogen atmosphere. From the DSC curve obtained thereby, the temperature at which the endothermic amount associated with the volatilization of the amine compound reached the maximum was calculated, and the temperature thereof was used as the maximum endothermic temperature of the amine compound.

[3] = Cycle evaluation (absorption, regeneration at 100° C. for 1 hour); conditions: before and after heating at 100° C. for 1 hour; for Weight Retention 1st Time: 1st regeneration; for Weight Retention 2nd Time: 2nd regeneration
Experimental: After the above evaluation of the carbon dioxide absorption capacity was completed, the amine compound was removed from the desiccator, and the amine compound with carbon dioxide absorbed was heated at 100° C. for 1 hour to release the carbon dioxide absorbed and regenerate the amine compound. At this time, weights of the amine compound before and after the heat treatment were measured, and a weight retention (1st time) was calculated.
Then, on the regenerated amine compound, the above evaluation of the carbon dioxide absorption capacity was performed again, and changes of the carbon dioxide concentration in the desiccator were measured after 2 hours and 24 hours (2nd time).
Then, the amine compound was removed from the desiccator, and the amine compound with carbon dioxide absorbed was heated at 100° C. for 1 hour to release carbon dioxide absorbed and regenerate the amine compound again. At this time, the weights of the amine compound before and after the heat treatment were measured, and the weight retention (2nd time) was calculated.
Next, on the regenerated amine compound, the above evaluation of the carbon dioxide absorption capacity was evaluated again, and changes of the carbon dioxide concentration in the desiccator were measured after 2 hours and 24 hours (3rd time).

[4] = Maximum carbon dioxide (CO2) release temperature of amine compound (DSC); type: physicochemical; conditions: amine compound with CO2 absorbed, DSC 23 to 250° C., 10° C./min, nitrogen
Experimental: (Maximum Carbon Dioxide (CO2) Release Temperature of Amine Compound)
After the above evaluation of the carbon dioxide absorption capacity was completed, the amine compound was removed from the desiccator to obtain the amine compound with carbon dioxide absorbed. The DSC measurement was performed on the amine compound with carbon dioxide absorbed as follows, to measure the maximum carbon dioxide release temperature of the amine compound. […] From the DSC curve obtained thereby, the temperature at which the endothermic amount associated with the desorption of carbon dioxide reached the maximum was calculated, and the temperature thereof was used as the maximum carbon dioxide release temperature of the amine compound.

[5] = Acid dissociation constant (pKa) of amine compound by acid-base titration; type: physicochemical; conditions: in purified water, 25±2° C.
Experimental: The acid dissociation constant of the amine compound was determined by the following method. • (1) Dissolving 0.2 g of the amine compound in 30 mL of the purified water. • (2) Calculating the acid dissociation constant (pKa) by titrating the solution obtained in the above (1) with the 0.1 N perchloric acid-acetic acid solution using the automatic potentiometric titrator (AT-610 produced by Kyoto Electronics Manufacturing Co., Ltd.).
Still, let the temperature at the time of measurement be 25±2° C.

SMILES	Amine Value [1] [mgKOH/g]	Maximum Endothermic Temperature [2] [°C]	Weight Retention 1st Time [3] [%]	Weight Retention 2nd Time [3] [%]	Maximum CO2 Release Temperature [4] [°C]	pKa ([5]; purified water, read-out: pKa)	pKa [5]
NCC1CCC(CN)CC1 (single isomer, unassigned) [Example 2, 1,4-bis(aminomethyl)cyclohexane]	789	155.6	–	–	135.2	10.9	–
NCCNCCNCCN [Comparative Example 2, Triethylenetetramine, reference compound]	1535	184.1	98	95	69.5	–	–
NCC1CCC(CN)CC1 (single isomer, unassigned) [Example 3, 1,4-bis(aminomethyl)cyclohexane]	789	155.9	–	–	130	–	11.3

Further lines, results first:

Amine Value [1] [mgKOH/g]	Maximum Endothermic Temperature [2] [°C]	Weight Retention 1st Time [3] [%]	Weight Retention 2nd Time [3] [%]	Maximum CO2 Release Temperature [4] [°C]	pKa ([5]; purified water, read-out: pKa)	pKa [5]	SMILES
844	246.7	100	100	97.8	–	–	NCCCNCC1CCCC(CNCCCN)C1 (stereo not shown) [Example 5]
–	–	–	–	–	10.9	–	N#CCCNCC1CCCC(CN)C1 (stereo not shown) [Example 4]
